Key:
[1] = tested on: left ventricular (LV) function; settings: 58 patients with primary glomerulonephritis and moderate chronic renal failure; cited from earlier work
[2] = tested on: left ventricular hypertrophy (LVH) in ESRD dialysed patients; experiment: Clinical trial of propionyl L-carnitine in ESRD patients on dialysis (multicentre, randomized, double-blind, placebo-controlled, echocardiography); format: in vivo, human; settings: 26 weeks
Method: A clinical trial (multicentre, parallel, randomized, double-blind, dose- ranging placebo-controlled study in 300 patients) useful for evaluating both preventive and/or curative effect of the treatment with propionyl L-carnitine (3 and 6 mg/kg given intravenously three times a week at the end of the hemodyalisis session for 26 weeks) has been done.
1) male or female out-patients aged >18 years, suffering from ESRD on bicarbonate dialysis three times a week;
2) patients who have reached a certain degree of dialytic stability (at least since six months on dialysis), so that the variability due to the progressive patient adaptation of the therapeutic treatment is controlled, presenting no clinical signs of hydric overload at the end of dialysis;
3) patients showing a degree of cardiac deterioration defined as inter-ventricular septum and left ventricular wall thickness ≧11 mm;
4) patients with left ventricular ejection fraction >40%;
During the whole Randomised Treatment Period, all drugs considered indispensable for the treatment of the disease under study could be administrated providing that they were administered for at least three months prior to patient's enrollment, and that the dosage of those drugs remained stable throughout the whole treatment period. […]

[3] = tested on: decompensated eccentric hypertrophy produced by myocardial infarction; settings: rats without renal damages; similar to ACE inhibition; cited from earlier work

SMILES	LV ejection fraction, early and late transmitral flow velocities and early to late LV inflow velocities ratio [1]	effect on the signs of LVH, signs (a)-(c): septum and posterior wall thickness, end-systolic and end-diastolic LV size and volume, LV ejection fraction ([2]; 3 and 6 mg/kg i.v. three times a week at end of hemodialysis session, preliminary ANOVA analysis)	progression of the signs of LVH, points (a)-(c), in the treated group respect to its base line ([2]; T26 vs T0, 3 and 6 mg/kg i.v. three times a week, control group signs worsened)	magnitude of decompensated eccentric hypertrophy produced by myocardial infarction [3]
C[C@H](CS)C(=O)N1CCC[C@H]1C(=O)O [captopril]	not significantly affected	–	–	–
CCOC(=O)[C@H](CCc1ccccc1)N[C@@H](C)C(=O)N1CCC[C@H]1C(=O)O [enalapril]	not significantly affected	–	–	–
CCC(=O)O[C@H](CC(=O)[O-])C[N+](C)(C)C [propionyl L-carnitine]	–	useful for treating the signs of LVH	able to reduce the progression of the signs of LVH	reduces the magnitude of decompensated eccentric hypertrophy
